One series has as its target DGAT2 (Homo sapiens (Human), UniProt Q96PD7). Put plainly: IC50 values for DGAT2 inhibitors in human hepatocytes. It is filed as cell-based. As to conditions: geometric mean, N=10; cryopreserved human hepatocytes, DGAT1 inhibitor at 3 μM present, [1,3-14C]-glycerol incorporation. Here is the method:
After 24 hours overnight recovery period, the cells were overlayed with media containing 250 μg/ml Matrigel (BD Biosciences, San Jose, Calif.). The following day, media was aspirated and replaced with serum-free Williams Media E (Life Technologies, Grand Island, N.Y.) containing 400 μM sodium dodecanoate (Sigma-Aldrich, St. Louis, Mo.). […] After separation, radiolabeled lipids were visualized using a Molecular Dynamics' PhosphorImager system.

The next series deals with human DGAT2 (hDGAT2) (Homo sapiens (Human), UniProt Q96PD7). Put plainly: In vitro DGAT2 assay, determination of IC50 values for DGAT2 inhibitors. It is filed as biochemical. Here is the method:
Recombinant baculovirus for the FLAG-tagged hDGAT2 was generated in SF9 insect cells using Bac-to-Bac baculovirus expression system (Invitrogen) according to the manufacturer's protocol. For the expression of hDGAT2, SF9 cells (20 L) grown in Sf90011 media were infected with hDGAT2 baculovirus at a multiplicity of infection of 1 in a Wave Bioreactor System 20/50P wave bag (GE Healthcare). After 40 hours of infection, the cells were then harvested by centrifugation at 5,000×g. The cell pellets were washed by resuspending in phosphate buffered saline (PBS) and collected by centrifugation at 5,000×g. The cell paste was flash frozen in liquid N2 and stored at −80° C. until needed. All operations below were at 4° C. unless otherwise noted. The cells were resuspended in lysis buffer (50 mM Tris-HCl, pH 8.0, 250 mM sucrose) including 1 mM ethylenediaminetetraacetic acid (EDTA) and the complete protease inhibitor cocktail (Roche Diagnostics) at a ratio of 3 ml buffer per 1 g cell paste. The cells were lysed by dounce homogenizer. The cell debris was removed by centrifugation at 1,000×g for 20 min, and the supernatant was centrifuged at 100,000×g for 1 hour. The resulting pellet was rinsed three times by filling ultracentrifuge tubes to the top with ice cold PBS before decanting. The washed pellet was resuspended with gentle stirring for 1 hour in lysis buffer containing 8 mM 3-[(3-cholamidopropyl)dimethylammonio]-1-propanesulfonate (CHAPS) at a ratio of 1 mL buffer per 1 g of original cell paste and centrifuged again at 100,000×g for 1 hour. The resulting supernatant was aliquotted, flash frozen in liquid N2, and stored at −80° C. until use.
To 1 μL of compounds dissolved in 100% DMSO and spotted at the bottom of each well, 5 μL of 0.04% bovine serum albumin (BSA) (fatty acid free, Sigma Aldrich) was added and the mixture was incubated at room temperature for 15 minutes. hDGAT2 membrane fractions were diluted in 100 mM Hepes-NaOH, pH 7.4, 20 mM MgCl2 containing 200 nM methyl arachidonyl fluorophosphonate (Cayman Chemical; dried from ethyl acetate stock solution under argon gas and dissolved in DMSO as 5 mM stock). 10 μL of this enzyme working solution was added to the plates and incubation continued for 2 hours at room temperature. DGAT2 reactions were initiated by the addition of 4 μL of substrates containing 30 μM [1-^14C]decanoyl-CoA (custom-synthesized by Perkin Elmer, 50 mCi/mmol) and 125 μM 1,2-didecanoyl-sn-glycerol (Avanti Polar Lipids) dissolved in 12.5% acetone. The reaction mixtures were incubated at room temperature for 40 min and the reactions were stopped by addition of 5 μL of 1% H3PO4. After the addition of 45 μL MicroScint-E (Perkin-Elmer), plates were sealed with Top Seal-A covers (Perkin-Elmer) and phase partitioning of substrates and products was achieved using a HT-91100 microplate orbital shaker (Big Bear Automation, Santa Clara, Calif.). Plates were centrifuged at 2,000×g for 1 minute in an Allegra 6R Centrifuge (Beckman Coulter) and then were sealed again with fresh covers before reading in a 1450 Microbeta Wallac Trilux Scintillation Counter (Perkin Elmer). DGAT2 activity was measured by quantifying the generated product [^14C]tridecanoylglycerol in the upper organic phase.
Inhibitors were tested at eleven different concentrations to generate IC50 values for each compound.

Series [1] can be described thus: Metabolic clearance in HLM (hepatic clearance profile). The class given is in vitro ADME. As to conditions: human, human liver microsomes, read-out: Clint, app in HLM. In general terms: Liver microsomes are vesicles of endoplasmic reticulum, rich in cytochrome P450 enzymes.
[2] abbreviates: geometric mean, hDGAT2 membrane fraction, [1-14C]decanoyl-CoA and 1,2-didecanoyl-sn-glycerol.
Where [3] appears, read: Table 3, comparison with WO2015140658 Example 19.21.

Structures are written as SMILES. pIC50: −log10 of the molar value.

Sequence of human DGAT2 (hDGAT2) (Q96PD7 whole entry): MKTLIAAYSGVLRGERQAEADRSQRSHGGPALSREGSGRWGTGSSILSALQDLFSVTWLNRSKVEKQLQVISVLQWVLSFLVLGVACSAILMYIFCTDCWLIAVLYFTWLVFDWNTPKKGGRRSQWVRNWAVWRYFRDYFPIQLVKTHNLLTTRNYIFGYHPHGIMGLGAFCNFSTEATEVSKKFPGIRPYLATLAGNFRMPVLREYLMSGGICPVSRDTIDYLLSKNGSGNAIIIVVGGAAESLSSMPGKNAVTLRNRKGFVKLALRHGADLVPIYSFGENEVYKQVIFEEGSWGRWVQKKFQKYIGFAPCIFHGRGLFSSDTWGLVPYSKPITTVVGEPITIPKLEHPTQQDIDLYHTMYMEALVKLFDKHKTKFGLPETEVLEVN
Sequence of DGAT2 (Q96PD7 whole entry): as above

One may read the pIC50 as the IC50 on a negative log10 scale, so that one unit is a factor of ten. A higher pIC50 goes with a small IC50. The compound `CCOc1cccnc1Oc1cncc(-c2ncc(C(=O)N[C@H]3CCOC3)cn2)c1` [Example 1, (S)-2-(5-((3-ethoxypyridin-2-yl)oxy)pyridin-3-yl)-N-(tetrahydrofuran-3-yl)pyrimidine-5-carboxamide] had a pIC50 against DGAT2 of 8.55.

On to `CCOc1cccnc1Oc1cncc(-c2ncc(C(=O)N[C@@H]3CCOC3)cn2)c1` [Example 2, (R)-2-(5-((3-Ethoxypyridin-2-yl)oxy)pyridin-3-yl)-N-(tetrahydrofuran-3-yl)pyrimidine-5-carboxamide], for which, on human DGAT2 (hDGAT2) (setting [2]), the pIC50 is 6.70.

As to `CCOc1cccnc1Oc1cncc(-c2ncc(C(=O)NC3(C)CCS(=O)(=O)C3)cn2)c1` (centres unmarked) [Example 3.1, 2-(5-((3-ethoxypyridin-2-yl)oxy)pyridin-3-yl)-N-(3-methyl-1,1-dioxidotetrahydrothiophen-3-yl)pyrimidine-5-carboxamide], the pIC50 at human DGAT2 (hDGAT2) (setting [2]) was 7.87.

For the compound `CCOc1cccnc1Oc1cncc(-c2ncc(C(=O)NC(C)(CO)CO)cn2)c1` [Example 3.2, N-(1,3-dihydroxy-2-methylpropan-2-yl)-2-(5-((3-ethoxypyridin-2-yl)oxy)pyridin-3-yl)pyrimidine-5-carboxamide], the pIC50 against human DGAT2 (hDGAT2) (setting [2]) is 7.08.

`CCOc1cccnc1Oc1cncc(-c2ncc(C(=O)NC3CCS(=O)(=O)C3)cn2)c1` (centres unmarked) [Example 3.3, N-(1,1-dioxidotetrahydrothiophen-3-yl)-2-(5-((3-ethoxypyridin-2-yl)oxy)pyridin-3-yl)pyrimidine-5-carboxamide] gave a pIC50 at human DGAT2 (hDGAT2) (setting [2]) of 6.71.

As to `CCOc1cccnc1Oc1cncc(-c2ncc(C(=O)N[C@H]3CCOC3)nn2)c1` [Example 3.4, (S)-3-(5-((3-ethoxypyridin-2-yl)oxy)pyridin-3-yl)-N-(tetrahydrofuran-3-yl)-1,2,4-triazine-6-carboxamide], at human DGAT2 (hDGAT2) (setting [2]), the pIC50 was 6.74.

With `CCOc1nccnc1Oc1cncc(-c2ncc(C(=O)NC(C)(C)CO)cn2)c1` [Example 3.5, 2-(5-((3-ethoxypyrazin-2-yl)oxy)pyridin-3-yl)-N-(1-hydroxy-2-methylpropan-2-yl)pyrimidine-5-carboxamide], the pIC50 against human DGAT2 (hDGAT2) (setting [2]) was 6.62.

Take `CCOc1cccnc1Oc1cncc(-c2ncc(C(=O)NC(C)(C)CS(C)(=O)=O)cn2)c1` [Example 3.6, 2-(5-((3-ethoxypyridin-2-yl)oxy)pyridin-3-yl)-N-(2-methyl-1-(methylsulfonyl)propan-2-yl)pyrimidine-5-carboxamide]: the negative-log IC50 (pIC50) against human DGAT2 (hDGAT2) (setting [2]) is 7.45.

On to `O=C(N[C@H]1CCOC1)c1cnc(-c2cncc(Oc3ncccc3OCCF)c2)nc1` [Example 3.7, (S)-2-(5-((3-(2-fluoroethoxy)pyridin-2-yl)oxy)pyridin-3-yl)-N-(tetrahydrofuran-3-yl)pyrimidine-5-carboxamide], for which, on human DGAT2 (hDGAT2) (setting [2]), the pIC50 is 7.18.

For the compound `CCOc1cccnc1Oc1cncc(-c2ncc(C(=O)NC(C)(C)C#N)cn2)c1` [Example 4, N-(2-cyanopropan-2-yl)-2-(5-((3-ethoxypyridin-2-yl)oxy)pyridin-3-yl)pyrimidine-5-carboxamide], the pIC50 on human DGAT2 (hDGAT2) (setting [2]) is 8.13.

With `CCOc1cccnc1Oc1cncc(-c2ncc(C(=O)NC(C)(C)CO)cn2)c1` [Example 5, 2-(5-((3-Ethoxypyridin-2-yl)oxy)pyridin-3-yl)-N-(1-hydroxy-2-methylpropan-2-yl)pyrimidine-5-carboxamide], the pIC50 against human DGAT2 (hDGAT2) (setting [3]) and against human DGAT2 (hDGAT2) (setting [2]) was 7.85 each time. Further, in series [1], the microsomal CLint was 18 µL/min/mg.

On to `CCOc1cccnc1Oc1cncc(-c2ncc(C(=O)NC(C)(C)CO)nn2)c1` [Example 7, 3-{5-[(3-ethoxypyridin-2-yl)oxy]pyridin-3-yl}-N-(1-hydroxy-2-methylpropan-2-yl)-1,2,4-triazine-6-carboxamide], for which, on human DGAT2 (hDGAT2) (setting [2]), the pIC50 was 7.08.

At human DGAT2 (hDGAT2) (setting [2]), `CCOc1cc(F)cnc1Oc1cncc(-c2ncc(C(=O)N[C@H]3CCOC3)cn2)c1` [Example 8, (S)-2-(5-((3-Ethoxy-5-fluoropyridin-2-yl)oxy)pyridin-3-yl)-N-(tetrahydrofuran-3-yl)pyrimidine-5-carboxamide] gave a pIC50 of 8.43.

Consider `CCOc1ccccc1O[C@@H]1CCCN(c2ncc(C(=O)NC(C)(C)CO)cn2)C1` [WO2015140658 Example 19.21, reference compound], for which, at human DGAT2 (hDGAT2) (setting [3]), the pIC50 was 8.10. For the same compound, the microsomal CLint in series [1] amounted to 121 µL/min/mg.

(Values after US10071992B2, “Diacylglycerol acyl transferase 2 inhibitors” (Pfizer Inc., priority 2016, dated 2018).)
